Data set [1] has as its target T1, Serine/threonine-protein kinase B-raf (Homo sapiens, UniProt P15056). As to the kind of experiment: Inhibition of B-Raf.
The nature of data set [2]: Apparent permeability from apical to basolateral side in human Caco2 cells. In kind it is ADME, cell-based. The following applies: caco-2. Background: Caco-2 monolayers are a common model of the intestinal barrier.
In data set [3] the target is T1, Serine/threonine-protein kinase B-raf. Description: Inhibition of B-Raf-mediated ERK phosphorylation in cell-based assay.
For data set [4], the system named is Caco-2. Description: Efflux ratio of apparent permeability from […] in human Caco2 cells. In kind it is ADME, cell-based.
Data set [5] in a line: Clearance in CD-1 mouse at 2.5 mg/kg, iv. The data set is classed as ADME, organism-based. The following applies: in vivo. The arrangement: dose 2.5 mg/kg, route intravenous.
The nature of data set [6]: AUC in CD-1 mouse at 2.5 mg/kg, iv. In kind it is ADME, organism-based. The arrangement: dose 2.5 mg/kg, route intravenous. The following applies: plasma.
Data set [7] is described as follows: Volume of distribution at steady state in CD-1 mouse at 2.5 mg/kg, iv. The following applies: in vivo, read-out: Vdss. In kind it is ADME, organism-based. More on the design: dose 2.5 mg/kg, route intravenous.
The nature of data set [8]: AUC in CD-1 mouse at 100 mg/kg, po. In kind it is ADME, organism-based. More on the design: dose 100 mg/kg, route oral. The following applies: plasma.
The nature of data set [9]: AUC in CD-1 mouse at 50 mg/kg, po. More on the design: dose 50 mg/kg, route oral. The data set is classed as ADME, organism-based. The following applies: plasma.
A short description of data set [10]: AUC in CD-1 mouse at 25 mg/kg, po. The data set is classed as ADME, organism-based. The note with it: plasma. More on the design: dose 25 mg/kg, route oral.

SMILES strings stand for the structures.

T1 sequence (P15056 whole entry): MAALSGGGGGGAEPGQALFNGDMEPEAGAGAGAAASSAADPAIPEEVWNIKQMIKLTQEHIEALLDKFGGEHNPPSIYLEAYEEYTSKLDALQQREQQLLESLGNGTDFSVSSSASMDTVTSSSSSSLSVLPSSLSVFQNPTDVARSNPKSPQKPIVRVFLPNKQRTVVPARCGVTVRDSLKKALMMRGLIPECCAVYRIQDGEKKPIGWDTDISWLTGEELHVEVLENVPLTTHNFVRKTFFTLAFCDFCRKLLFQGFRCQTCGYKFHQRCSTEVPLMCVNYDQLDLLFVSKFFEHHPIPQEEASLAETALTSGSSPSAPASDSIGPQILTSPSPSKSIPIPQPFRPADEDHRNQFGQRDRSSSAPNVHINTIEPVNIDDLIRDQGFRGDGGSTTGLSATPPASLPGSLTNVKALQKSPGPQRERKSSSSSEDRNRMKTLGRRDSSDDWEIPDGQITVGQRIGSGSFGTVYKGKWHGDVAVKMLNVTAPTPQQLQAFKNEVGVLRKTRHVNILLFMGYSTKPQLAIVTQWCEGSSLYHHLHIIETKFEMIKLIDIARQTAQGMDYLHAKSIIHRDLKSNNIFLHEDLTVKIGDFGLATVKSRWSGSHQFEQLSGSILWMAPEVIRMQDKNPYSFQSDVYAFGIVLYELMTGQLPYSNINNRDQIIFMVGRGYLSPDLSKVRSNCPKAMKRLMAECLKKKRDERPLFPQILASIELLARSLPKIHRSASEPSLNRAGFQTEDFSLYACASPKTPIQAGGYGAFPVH

As to `CCc1c[nH]nc1-c1ccc(-c2cn(C)nc2-c2ccncc2)cc1`, the IC50 (as a rule, the midpoint of a concentration-inhibition curve) in data set [1] was > 1000 nM.

In turn, `Cn1cc(-c2ccc3c(c2)CCc2c[nH]nc2-3)c(-c2ccncc2)n1` gave an IC50 in data set [1] of 23 nM.

`Cn1cc(-c2ccc3c(c2)CCc2n[nH]cc2-3)c(-c2ccncc2)n1`: the IC50 in data set [1] was > 1000 nM.

`Cn1cc(-c2ccc3c(c2)Cc2n[nH]nc2-3)c(-c2ccncc2)n1` showed an IC50 in [1] of 11 nM.

`Cn1cc(-c2ccc(-c3c[nH]nn3)cc2)c(-c2ccncc2)n1` returned an IC50 in data set [1] of 55 nM.

In data set [1], `Cn1cc(-c2ccc(-c3cc[nH]c3)cc2)c(-c2ccncc2)n1` yielded an IC50 of 788 nM.

In turn, `Cn1cc(-c2ccc3c(c2)CNC3=O)c(-c2ccncc2)n1` displayed an IC50 in data set [1] of 94 nM.

In data set [1], `CNC(=O)c1ccc(-c2cn(C)nc2-c2ccncc2)cc1` registered an IC50 of 647 nM.

For the molecule `Cn1cc(-c2ccc(S(N)(=O)=O)cc2)c(-c2ccncc2)n1`, the IC50 in data set [1] was > 1000 nM.

Consider `Cn1cc(-c2cccc3[nH]ncc23)c(-c2ccncc2)n1`, for which the IC50 in [1] turned out to be 468 nM.

Take `Cn1cc(-c2ccc3[nH]ncc3c2)c(-c2ccncc2)n1`: the IC50 in data set [1] is > 1000 nM.

Take `Cn1cc(-c2ccc3[nH]ccc3c2)c(-c2ccncc2)n1`: in [1], the IC50 was 861 nM.

In [1], `Cn1cc(-c2ccc3cc[nH]c3c2)c(-c2ccncc2)n1` displayed an IC50 of 328 nM.

Regarding `Cn1cc(-c2ccc3c(O)cccc3c2)c(-c2ccncc2)n1`, the IC50 in data set [1] was determined as 1.4 nM.

`Cn1cc(-c2ccc3cc(O)ccc3c2)c(-c2ccncc2)n1` gave an IC50 in data set [1] of 77 nM.

For `Cn1cc(N)c(-c2ccncc2)n1`, the IC50 in [1] was > 1000 nM.

In the case of `Cn1cc(O)c(-c2ccncc2)n1`, in [1], the IC50 was > 1000 nM.

Consider `c1cc(-c2nn(C3CCNCC3)cc2-c2ccc3c(c2)Cc2c[nH]nc2-3)ccn1`, for which the Papp A→B (in general, the apparent permeability from the apical to the basolateral side of a cell layer) in data set [2] worked out at 1.88 ×10⁻⁶ cm/s. The IC50 in data set [3] was found to be 230 nM. Besides, in [4], the Ratio is reported as 6.17.

Take `CN1CCC(n2cc(-c3ccc4c(c3)Cc3c[nH]nc3-4)c(-c3ccncc3)n2)CC1`: the IC50 in data set [1] stood at 8 nM; in data set [3], 886 nM.

Turning to `c1cc(-c2nn(C3CC4CCC(C3)N4)cc2-c2ccc3c(c2)Cc2c[nH]nc2-3)ccn1` (configuration not stated), the IC50 in data set [1] turned out to be 0.57 nM; in data set [3], 262 nM.

Consider `c1cc(-c2nn(C3CCCNC3)cc2-c2ccc3c(c2)Cc2c[nH]nc2-3)ccn1` (configuration not stated), for which the results for the IC50 in [1] and in [3] were 3.7 nM and 1670 nM, respectively.

Consider `c1cc(-c2nn(C3CCCNCC3)cc2-c2ccc3c(c2)Cc2c[nH]nc2-3)ccn1` (configuration not stated), for which the IC50 came out at 3.2 nM in data set [1] and 1540 nM in data set [3].

Consider `N[C@H]1CC[C@H](n2cc(-c3ccc4c(c3)Cc3c[nH]nc3-4)c(-c3ccncc3)n2)CC1`, for which the IC50 in [1] was found to be 0.66 nM; in [3], 396 nM.

As to `N[C@H]1CC[C@@H](n2cc(-c3ccc4c(c3)Cc3c[nH]nc3-4)c(-c3ccncc3)n2)CC1`, the IC50 is 22.9 nM in data set [1] and 1520 nM in data set [3].

Consider `CNCCn1cc(-c2ccc3c(c2)Cc2c[nH]nc2-3)c(-c2ccncc2)n1`, for which the results for the IC50 in data set [1] and in data set [3] were 72.5 nM and 8160 nM, respectively.

Take `O[C@@H]1CCC[C@H](n2cc(-c3ccc4c(c3)Cc3c[nH]nc3-4)c(-c3ccncc3)n2)C1`: the IC50 in data set [1] was 2 nM; in data set [3], 607 nM.

For `c1ccc(-n2cc(-c3ccc4c(c3)Cc3c[nH]nc3-4)c(-c3ccncc3)n2)cc1`, the IC50 came to 4.6 nM in data set [1] and 4370 nM in data set [3].

Regarding `O[C@@H]1CNCC[C@H]1n1cc(-c2ccc3c(c2)Cc2c[nH]nc2-3)c(-c2ccncc2)n1`, the IC50 in [1] came out at 4.9 nM; in [3] it was 4870 nM.

As for `c1cc(-c2nn(C3CC4COCC(C3)N4)cc2-c2ccc3c(c2)Cc2c[nH]nc2-3)ccn1` (configuration not stated), the IC50 in [1] is 5 nM; in data set [3] it was 619 nM.

For `F[C@H]1CNCC[C@H]1n1cc(-c2ccc3c(c2)Cc2c[nH]nc2-3)c(-c2ccncc2)n1`, the results for the IC50 in [1] and in data set [3] were 3.8 nM and 407 nM, respectively.

As to `F[C@H]1CCNC[C@H]1n1cc(-c2ccc3c(c2)Cc2c[nH]nc2-3)c(-c2ccncc2)n1`, the IC50 in [1] is 3.2 nM; in [3], 2120 nM.

`F[C@H]1CNCC[C@@H]1n1cc(-c2ccc3c(c2)Cc2c[nH]nc2-3)c(-c2ccncc2)n1`: the figures for the IC50 in data set [1] and in data set [3] were 1.25 nM and 672 nM, respectively.

With `Cc1c[nH]nc1-c1ccc(-c2cn(C)nc2-c2ccncc2)cc1`, in data set [1], the IC50 was found to be 7 nM.

`Cn1cc(-c2ccc3cn[nH]c3c2)c(-c2ccncc2)n1` came in with an IC50 in data set [1] of 139 nM.

Turning to `F[C@@H]1CNCC[C@H]1n1cc(-c2ccc3c(c2)Cc2c[nH]nc2-3)c(-c2ccncc2)n1` (stereo in doubt; 38), the clearance (commonly the volume of plasma or blood freed of the substance per unit of time) in data set [5] amounted to 91.1 mL/min/kg. The IC50 was found to be 1.4 nM in data set [1] and 700 nM in [3]. Moreover, the area under the curve (AUC) (commonly concentration integrated over time) in [6] was 406 ng·h/mL; in data set [8] it was 38800 ng·h/mL; in [9] it was 13400 ng·h/mL; in data set [10], 5160 ng·h/mL. Further, the Papp A→B in data set [2] is 11.4 ×10⁻⁶ cm/s. The Vd in data set [7] is 8.74 L/kg. Further, in data set [4], the Ratio was found to be 1.55.

As to `F[C@@H]1CNCC[C@H]1n1cc(-c2ccc3c(c2)Cc2c[nH]nc2-3)c(-c2ccncc2)n1` (stereo in doubt; 41), the IC50 in data set [1] is 1.6 nM; in data set [3], 532 nM.
